Test results as given in patent US20260070945A1, “MACROCYCLIC IMMUNOMODULATORS” (Bristol-Myers Squibb Company, priority 2022, published 2026).
*1 amine or outer side, *2 acyl side, *3 side chain or, on linkers, in order; H or OH if unused. Where a SMILES comes first, the peptide text is derived from it. Bridges are numbered along the chain shown (N, C = ends). [ ]: non-standard residue; d: D form. The star is where a group is joined. Phe(4-guanidino) = N=C(N)Nc1ccc(C[C@H](N)C(=O)O)cc1; Phe(4-CH2NH2) = NCc1ccc(C[C@H](N)C(=O)O)cc1; Bip = N[C@@H](Cc1ccc(-c2ccccc2)cc1)C(=O)O; Phe(3-Me) = Cc1cccc(C[C@H](N)C(=O)O)c1; Gly(decyl) = CCCCCCCCCC[C@H](N)C(=O)O; NH(CH2)8CO = O=C(CCCCCCCCN[*:1])[*:2]; Cha = N[C@@H](CC1CCCCC1)C(=O)O; 12Ado = NCCCCCCCCCCCC(=O)O; Carboxymethyl = O=C(O)C*; NMeA = CN[C@@H](C)C(=O)O; Orn = NCCC[C@H](N)C(=O)O; Aun = NCCCCCCCCCCC(=O)O; Dab = NCC[C@H](N)C(=O)O; AEEA = NCCOCCOCC(=O)O; Ac3c = NC1(C(=O)O)CC1; Aoc = NCCCCCCCC(=O)O

The molecules below were run against T1, PD-1/PD-L1 interaction (PE-labeled human PD-L1-Ig binding to Jurkat cell line over-expressing human PD-1) (Homo sapiens, UniProt Q15116) (assay: Jurkat-PD-1 Cell Binding High-Content Screening Assay (CBA)). Details: PE-labeled PD-L1-Ig 20 nM final, Jurkat-hPD-1 cells; read-out: Jurkat HPD1 PDL1 IC50.
T1 construct: expressed in transfected cells; host or cells: Jurkat
T1 sequence (Q15116 25-288): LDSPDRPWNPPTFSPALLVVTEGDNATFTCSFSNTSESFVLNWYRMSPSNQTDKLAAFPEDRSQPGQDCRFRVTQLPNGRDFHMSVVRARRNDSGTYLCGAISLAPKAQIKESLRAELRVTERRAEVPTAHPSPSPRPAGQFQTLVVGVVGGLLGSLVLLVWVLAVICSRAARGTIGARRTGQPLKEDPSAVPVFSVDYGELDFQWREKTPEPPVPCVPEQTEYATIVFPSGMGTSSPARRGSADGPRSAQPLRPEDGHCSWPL
Method in brief: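 Cells 8×10^3/well, DMEM + 10% FCS; cpd 2 h, 37 °C; PE–PD-L1-Ig 20 nM final, 1 h; PFA fix + Hoechst 33342, 3× dPBS wash; high-content imager.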
`Cc1cccc(C[C@@H]2NC(=O)[C@H](CC(=O)O)NC(=O)[C@H](Cc3ccc(OCC(=O)O)cc3)NC(=O)[C@H]([C@@H](C)O)NC(=O)CSC[C@@H](C(=O)N[C@@H](CCN)C(=O)NCCOCCOCC(=O)NCCCCCCCCCCCC(=O)O)NC(=O)[C@H](C)NC(=O)[C@H](C(C)C)NC(=O)[C@H](CC3CCCCC3)NC(=O)[C@H](CCN)NC(=O)[C@@H](CC(C)C)NC(=O)[C@H](C)N(C)C(=O)[C@H](Cc3ccc(OCC(=O)O)cc3)NC(=O)[C@H](Cc3ccc(-c4ccccc4)cc3)NC(=O)[C@H](Cc3ccc(OCC(=O)O)cc3)NC2=O)c1` [Example 2669] ({CH2CO}-TY(Carboxymethyl)D[Phe(3-Me)]Y(Carboxymethyl)[Bip]Y(Carboxymethyl)[NMeA][dL][Dab][Cha]VAC[Dab][AEEA][12Ado]-OH; thioether N-14) showed an IC50 of 2.4 nM.
`Cc1cccc(C[C@@H]2NC(=O)[C@H](CC(=O)O)NC(=O)[C@H](Cc3ccc(OCC(=O)O)cc3)NC(=O)[C@H]([C@@H](C)O)NC(=O)CSC[C@@H](C(=O)N[C@@H](CCN)C(=O)NCCOCCOCC(=O)NCCCCCCCCCCCC(=O)O)NC(=O)[C@@H](C)NC(=O)[C@H](C(C)C)NC(=O)[C@H](CC3CCCCC3)NC(=O)[C@H](CCN)NC(=O)[C@@H](CC(C)C)NC(=O)[C@H](C)N(C)C(=O)[C@H](Cc3ccc(OCC(=O)O)cc3)NC(=O)[C@H](Cc3ccc(-c4ccccc4)cc3)NC(=O)[C@H](Cc3ccc(OCC(=O)O)cc3)NC2=O)c1` [Example 2670] ({CH2CO}-TY(Carboxymethyl)D[Phe(3-Me)]Y(Carboxymethyl)[Bip]Y(Carboxymethyl)[NMeA][dL][Dab][Cha]V[dA]C[Dab][AEEA][12Ado]-OH; thioether N-14) gave an IC50 of 6.6 nM.
In the case of `Cc1cccc(C[C@@H]2NC(=O)[C@H](CC(=O)O)NC(=O)[C@H](Cc3ccc(CN)cc3)NC(=O)[C@H]([C@@H](C)O)NC(=O)CSC[C@@H](C(=O)N[C@@H](CCN)C(=O)NCCCCCCCCC(=O)NCCCCCCCCCCC(=O)O)NC(=O)[C@H](CCCN)NC(=O)[C@H](C(C)C)NC(=O)[C@H](CC3CCCCC3)NC(=O)[C@H](CCN)NC(=O)[C@@H](CC(C)C)NC(=O)[C@H](C)N(C)C(=O)[C@H](Cc3ccc(CN)cc3)NC(=O)[C@H](Cc3ccc(-c4ccccc4)cc3)NC(=O)[C@H](Cc3ccc(CN)cc3)NC2=O)c1` [Example 2671] ({CH2CO}-T[Phe(4-CH2NH2)]D[Phe(3-Me)][Phe(4-CH2NH2)][Bip][Phe(4-CH2NH2)][NMeA][dL][Dab][Cha]V[Orn]C[Dab][NH(CH2)8CO][Aun]-OH; thioether N-14), the IC50 is reported as 30.1 nM.
For `Cc1cccc(C[C@@H]2NC(=O)[C@H](CC(=O)O)NC(=O)[C@H](Cc3ccc(OCC(=O)O)cc3)NC(=O)[C@H]([C@@H](C)O)NC(=O)CSC[C@@H](C(=O)N[C@@H](CCN)C(=O)NCCOCCOCC(=O)NCCCCCCCCCCCC(=O)O)NC(=O)C3(CC3)NC(=O)[C@H](C(C)C)NC(=O)[C@H](CC3CCCCC3)NC(=O)[C@H](CCN)NC(=O)[C@@H](CC(C)C)NC(=O)[C@H](C)N(C)C(=O)[C@H](Cc3ccc(OCC(=O)O)cc3)NC(=O)[C@H](Cc3ccc(-c4ccccc4)cc3)NC(=O)[C@H](Cc3ccc(OCC(=O)O)cc3)NC2=O)c1` [Example 2672] ({CH2CO}-TY(Carboxymethyl)D[Phe(3-Me)]Y(Carboxymethyl)[Bip]Y(Carboxymethyl)[NMeA][dL][Dab][Cha]V[Ac3c]C[Dab][AEEA][12Ado]-OH; thioether N-14), the IC50 was 200 nM.
`CCCCCCCCCC[C@@H]1NC(=O)[C@H](C(C)C)NC(=O)[C@H](CC2CCCCC2)NC(=O)[C@H](CCN)NC(=O)[C@@H](CC(C)C)NC(=O)[C@H](C)N(C)C(=O)[C@H](Cc2ccc(OCC(=O)O)cc2)NC(=O)[C@H](Cc2ccc(-c3ccccc3)cc2)NC(=O)[C@H](Cc2ccc(OCC(=O)O)cc2)NC(=O)[C@H](Cc2cccc(C)c2)NC(=O)[C@H](CC(=O)O)NC(=O)[C@H](Cc2ccc(OCC(=O)O)cc2)NC(=O)[C@H]([C@@H](C)O)NC(=O)CSC[C@@H](C(=O)N[C@@H](CCN)C(=O)NCCOCCOCC(=O)NCCCCCCCCCCCC(=O)O)NC1=O` [Example 2673] ({CH2CO}-TY(Carboxymethyl)D[Phe(3-Me)]Y(Carboxymethyl)[Bip]Y(Carboxymethyl)[NMeA][dL][Dab][Cha]V[Gly(decyl)]C[Dab][AEEA][12Ado]-OH; thioether N-14) gave an IC50 of 90.3 nM.
With `Cc1cccc(C[C@@H]2NC(=O)[C@H](CC(=O)O)NC(=O)[C@H](Cc3ccc(OCC(=O)O)cc3)NC(=O)[C@H]([C@@H](C)O)NC(=O)CSC[C@@H](C(=O)N[C@@H](CCN)C(=O)NCCOCCOCC(=O)NCCCCCCCCCCCC(=O)O)NC(=O)[C@H](Cc3ccc(-c4ccccc4)cc3)NC(=O)[C@H](C(C)C)NC(=O)[C@H](CC3CCCCC3)NC(=O)[C@H](CCN)NC(=O)[C@@H](CC(C)C)NC(=O)[C@H](C)N(C)C(=O)[C@H](Cc3ccc(OCC(=O)O)cc3)NC(=O)[C@H](Cc3ccc(-c4ccccc4)cc3)NC(=O)[C@H](Cc3ccc(OCC(=O)O)cc3)NC2=O)c1` [Example 2674] ({CH2CO}-TY(Carboxymethyl)D[Phe(3-Me)]Y(Carboxymethyl)[Bip]Y(Carboxymethyl)[NMeA][dL][Dab][Cha]V[Bip]C[Dab][AEEA][12Ado]-OH; thioether N-14) the IC50 was 21.3 nM.
`CC(=O)NCC[C@H](NC(=O)[C@@H]1CSCC(=O)N[C@@H]([C@@H](C)O)C(=O)N[C@@H](Cc2ccc(OCC(=O)O)cc2)C(=O)N[C@@H](CC(=O)O)C(=O)N[C@@H](Cc2cccc(C)c2)C(=O)N[C@@H](Cc2ccc(OCC(=O)O)cc2)C(=O)N[C@@H](Cc2ccc(-c3ccccc3)cc2)C(=O)N[C@@H](Cc2ccc(OCC(=O)O)cc2)C(=O)N(C)[C@@H](C)C(=O)N[C@H](CC(C)C)C(=O)N[C@@H](CCNC(C)=O)C(=O)N[C@@H](CC2CCCCC2)C(=O)N[C@@H](C(C)C)C(=O)N[C@@H](CCC(=O)O)C(=O)N1)C(=O)NCCCCCCCC(=O)NCCCCCCCCCCCC(=O)O` [Example 2676] ({CH2CO}-TY(Carboxymethyl)D[Phe(3-Me)]Y(Carboxymethyl)[Bip]Y(Carboxymethyl)[NMeA][dL][Dab](Ac)[Cha]VEC[Dab](Ac)[Aoc][12Ado]-OH; thioether N-14) was tested, and the IC50 was 503 nM.
With `Cc1cccc(C[C@@H]2NC(=O)[C@H](CC(=O)O)NC(=O)[C@H](Cc3ccc(OCC(=O)O)cc3)NC(=O)[C@H]([C@@H](C)O)NC(=O)CSC[C@@H](C(=O)N[C@@H](CCN)C(=O)NCCCCCCCCCCCC(=O)NCCCCCCCCCCC(=O)O)NC(=O)[C@H](CCC(=O)O)NC(=O)[C@H](C(C)C)NC(=O)[C@H](CC3CCCCC3)NC(=O)[C@H](CCN)NC(=O)[C@@H](CC(C)C)NC(=O)[C@H](C)N(C)C(=O)[C@H](Cc3ccc(OCC(=O)O)cc3)NC(=O)[C@H](Cc3ccc(-c4ccccc4)cc3)NC(=O)[C@H](Cc3ccc(OCC(=O)O)cc3)NC2=O)c1` [Example 2679] ({CH2CO}-TY(Carboxymethyl)D[Phe(3-Me)]Y(Carboxymethyl)[Bip]Y(Carboxymethyl)[NMeA][dL][Dab][Cha]VEC[Dab][12Ado][Aun]-OH; thioether N-14) the IC50 was 12.2 nM.
Work on `Cc1cccc(C[C@@H]2NC(=O)[C@H](CC(=O)O)NC(=O)[C@H](Cc3ccc(OCC(=O)O)cc3)NC(=O)[C@H]([C@@H](C)O)NC(=O)CSC[C@@H](C(=O)N[C@@H](CCN)C(=O)NCCCCCCCCCCCC(=O)NCCCCCCCCCCCC(=O)O)NC(=O)[C@H](CCC(=O)O)NC(=O)[C@H](C(C)C)NC(=O)[C@H](CC3CCCCC3)NC(=O)[C@H](CCN)NC(=O)[C@@H](CC(C)C)NC(=O)[C@H](C)N(C)C(=O)[C@H](Cc3ccc(OCC(=O)O)cc3)NC(=O)[C@H](Cc3ccc(-c4ccccc4)cc3)NC(=O)[C@H](Cc3ccc(OCC(=O)O)cc3)NC2=O)c1` [Example 2682] ({CH2CO}-TY(Carboxymethyl)D[Phe(3-Me)]Y(Carboxymethyl)[Bip]Y(Carboxymethyl)[NMeA][dL][Dab][Cha]VEC[Dab][12Ado][12Ado]-OH; thioether N-14) yielded an IC50 of 58 nM.
`Cc1cccc(C[C@@H]2NC(=O)[C@H](CC(=O)O)NC(=O)[C@H](Cc3ccc(NC(=N)N)cc3)NC(=O)[C@H]([C@@H](C)O)NC(=O)CSC[C@@H](C(=O)N[C@@H](CCN)C(=O)NCCCCCCCCC(=O)NCCCCCCCCCCC(=O)O)NC(=O)[C@H](CCCN)NC(=O)[C@H](C(C)C)NC(=O)[C@H](CC3CCCCC3)NC(=O)[C@H](CCN)NC(=O)[C@@H](CC(C)C)NC(=O)[C@H](C)N(C)C(=O)[C@H](Cc3ccc(NC(=N)N)cc3)NC(=O)[C@H](Cc3ccc(-c4ccccc4)cc3)NC(=O)[C@H](Cc3ccc(NC(=N)N)cc3)NC2=O)c1` [Example 2684] ({CH2CO}-T[Phe(4-guanidino)]D[Phe(3-Me)][Phe(4-guanidino)][Bip][Phe(4-guanidino)][NMeA][dL][Dab][Cha]V[Orn]C[Dab][NH(CH2)8CO][Aun]-OH; thioether N-14) showed an IC50 of 4.4 nM.
For `Cc1cccc(C[C@@H]2NC(=O)[C@H](CC(=O)O)NC(=O)[C@H](Cc3ccc(OCC(=O)O)cc3)NC(=O)[C@H]([C@@H](C)O)NC(=O)CSC[C@@H](C(=O)N[C@@H](CCC(=O)O)C(=O)NCCOCCOCC(=O)NCCCCCCCCCCCC(=O)O)NC(=O)CNC(=O)[C@H](C(C)C)NC(=O)[C@H](CC3CCCCC3)NC(=O)[C@@H](CCC(=O)O)NC(=O)[C@@H](CC(C)C)NC(=O)[C@H](C)N(C)C(=O)[C@H](Cc3ccc(OCC(=O)O)cc3)NC(=O)[C@H](Cc3ccc(-c4ccccc4)cc3)NC(=O)[C@H](Cc3ccc(OCC(=O)O)cc3)NC2=O)c1` [Example 2686] ({CH2CO}-TY(Carboxymethyl)D[Phe(3-Me)]Y(Carboxymethyl)[Bip]Y(Carboxymethyl)[NMeA][dL][dE][Cha]VGCE[AEEA][12Ado]-OH; thioether N-14), the IC50 was 257 nM.
`Cc1cccc(C[C@@H]2NC(=O)[C@H](CC(=O)O)NC(=O)[C@H](Cc3ccc(OCC(=O)O)cc3)NC(=O)[C@H]([C@@H](C)O)NC(=O)CSC[C@@H](C(=O)NCC(=O)NCCOCCOCC(=O)NCCCCCCCCCCCC(=O)O)NC(=O)CNC(=O)[C@H](C(C)C)NC(=O)[C@H](CC3CCCCC3)NC(=O)[C@@H](CCC(=O)O)NC(=O)[C@@H](CC(C)C)NC(=O)[C@H](C)N(C)C(=O)[C@H](Cc3ccc(OCC(=O)O)cc3)NC(=O)[C@H](Cc3ccc(-c4ccccc4)cc3)NC(=O)[C@H](Cc3ccc(OCC(=O)O)cc3)NC2=O)c1` [Example 2688] ({CH2CO}-TY(Carboxymethyl)D[Phe(3-Me)]Y(Carboxymethyl)[Bip]Y(Carboxymethyl)[NMeA][dL][dE][Cha]VGCG[AEEA][12Ado]-OH; thioether N-14) showed an IC50 of 54.5 nM.
